Source: PubChem BioAssay (NCI)
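All cell lines were grown in 96-well plates and treated with compound for 48 hours. GI50 is the concentration that inhibits growth by half. TGI: concentration producing complete growth inhibition.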

How the values were obtained:
Test in all cases: NCI-60 cell line screen, 48 h
[1] = test system: A549 NSCLC
[2] = test system: PC-3 prostate
[3] = test system: HOP-62 NSCLC
[4] = test system: SNB-19 CNS
[5] = test system: M14 melanoma
[6] = test system: U251 CNS
[7] = test system: RXF 393 renal
[8] = test system: NCI-H23 lung
[9] = test system: KM12 colon
[10] = test system: A498 renal

Cc1nc(Cl)nc(Cl)c1C
TGI [1]: > 100 µM
TGI [2]: > 100 µM
TGI [3]: > 100 µM
TGI [4]: > 100 µM
TGI [5]: > 100 µM
TGI [6]: > 100 µM
TGI [7]: > 100 µM
TGI [8]: > 100 µM
TGI [9]: > 100 µM

COc1cc(/C=C2/C(=O)N(C(=O)OC(C)C)C(Cc3cc(OC)c(OC)c(C)c3OC)C(=O)N2Cc2ccccc2)c(OC)c(C)c1OC (stereo not given)
TGI [1]: > 100 µM
TGI [3]: > 100 µM
TGI [5]: > 100 µM
TGI [6]: > 100 µM
TGI [7]: > 100 µM
TGI [8]: > 100 µM
TGI [9]: > 100 µM
TGI [10]: > 100 µM

COc1ccc(C(=O)OCC2OC(n3cnc4c(=S)nc[nH]c43)C(OC(=O)c3ccc(OC)cc3)C2OC(=O)c2ccc(OC)cc2)cc1 (stereo not given)
TGI [1]: > 100 µM
TGI [3]: > 100 µM
TGI [4]: > 100 µM
TGI [5]: > 100 µM
TGI [6]: > 100 µM
TGI [8]: > 100 µM
TGI [9]: > 100 µM

CCOC(=O)C12CCCC1(O)N(NC(=O)c1ccccc1)C(C)=C2C(=O)OC (stereo not given)
TGI [1]: > 100 µM
TGI [3]: > 100 µM
TGI [4]: > 100 µM
TGI [5]: > 100 µM
TGI [6]: > 100 µM
TGI [8]: > 100 µM
TGI [9]: > 100 µM
TGI [10]: > 100 µM

COC(=O)C1=C2CCC(=O)[C@@]2(C)C(OC(C)=O)C=CC1 (stereo not given in full)
TGI [1]: > 100 µM
TGI [3]: > 100 µM
TGI [5]: > 100 µM
TGI [6]: > 100 µM
TGI [7]: > 100 µM
TGI [8]: > 100 µM
TGI [9]: > 100 µM
TGI [10]: > 100 µM

CC1CC2(C)ON=C(c3ccccc3)N2c2ccccc2S1 (stereo not given)
GI50 [1]: 34.3 µM
GI50 [3]: 56.7 µM
GI50 [4]: 53.9 µM
GI50 [5]: 31.7 µM
TGI [5]: 83.2 µM
GI50 [6]: 34.9 µM
GI50 [8]: 28.1 µM
TGI [8]: 97.5 µM
GI50 [9]: 17.5 µM
TGI [9]: 42.5 µM
GI50 [10]: 34.7 µM

O=C(O)C(CP(=O)(O)O)=C(Cl)Cl
TGI [1]: > 100 µM
TGI [3]: > 100 µM
TGI [4]: > 100 µM
TGI [6]: > 100 µM
TGI [7]: > 100 µM
TGI [8]: > 100 µM

COc1ccc2c(c1)c(-c1ccc(-c3cn(S(=O)(=O)c4ccccc4)c4ccc(OC)cc34)s1)cn2S(=O)(=O)c1ccccc1
GI50 [1]: > 100 µM
TGI [1]: > 100 µM
GI50 [2]: > 100 µM
TGI [2]: > 100 µM
GI50 [3]: > 100 µM
TGI [3]: > 100 µM
GI50 [4]: > 100 µM
TGI [4]: > 100 µM
GI50 [5]: > 100 µM
TGI [5]: > 100 µM
GI50 [6]: > 100 µM
TGI [6]: > 100 µM
GI50 [8]: > 100 µM
TGI [8]: > 100 µM
GI50 [9]: > 100 µM
TGI [9]: > 100 µM
GI50 [10]: > 100 µM
TGI [10]: > 100 µM

CC(=O)OC(/C=C1/C=CC(=O)O1)COC(=O)c1ccccc1 (stereo not given)
TGI [1]: > 31.2 µM
TGI [3]: > 31.2 µM
TGI [4]: > 31.2 µM
TGI [5]: > 31.2 µM
TGI [6]: > 31.2 µM
TGI [7]: > 31.2 µM
TGI [8]: > 31.2 µM
TGI [9]: > 31.2 µM
TGI [10]: > 31.2 µM

COc1ccc2c(=O)c(C)c(-c3ccccc3)oc2c1CN(C)C
TGI [1]: > 100 µM
TGI [3]: > 100 µM
TGI [4]: > 100 µM
TGI [5]: > 100 µM
TGI [6]: > 100 µM
TGI [7]: > 100 µM
TGI [8]: > 100 µM
TGI [9]: > 100 µM
TGI [10]: > 100 µM

Cc1ccc(NC(=O)CCC(CC(=O)C(C)(C)C)=NNC(=O)C(=O)NN)cc1C
TGI [1]: > 100 µM
TGI [3]: > 100 µM
TGI [4]: > 100 µM
TGI [5]: > 100 µM
TGI [7]: > 100 µM
TGI [8]: > 100 µM
TGI [9]: > 100 µM
